# Measurements taken from ChEMBL document CHEMBL1201862, “PubChem BioAssay data set” (2004).
#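 96-well plates; 48 h exposure; 5 concentrations. Endpoints by linear interpolation between flanking doses. Not reached: highest tested concentration assigned. The concentration for 50% growth inhibition is given as GI50.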 Active and inactive are the calls of the source. Cut-off read from the data, not from the text of the source: active = GI50 up to about 1.1 µM and inactive = higher. Starred links: 1 amine or outer side, 2 acyl side, 3 side chain; linkers in the order of their positions; H or OH if unused. Positions of bridges follow the written chain, without caps; N, C: chain ends. Non-standard residues stand in square brackets, D forms with d. Residues, ends and D or L forms follow the SMILES beside them. *: point of attachment. X40 = CC[C@H](C)[C@@H](N[*:1])[C@@H](O)CC(=O)[*:2]; NMeY = CN[C@@H](Cc1ccc(O)cc1)C(=O)O; dNMeL = CN[C@H](CC(C)C)C(=O)O; Hiv = CC(C)[C@H](O)C(=O)O; Pyruvoyl = CC(=O)C(=O)*
# Columns and labels:
# Assay in all cases: growth of human tumour cells (NCI), 48 h
# [1] = system: CAKI-1
# [2] = system: CCRF-CEM
# [3] = system: EKVX
# [4] = system: HOP-62
# [5] = system: KM-20L2
# [6] = system: MOLT-4
# [7] = system: Malme-3M
# [8] = system: NCI-H23
# [9] = system: OVCAR-5
# [10] = system: RPMI-8226
# [11] = system: SN12C
# [12] = system: U-251
# [13] = system: COLO 205
# [14] = system: HL-60
# [15] = system: HOP-92
# [16] = system: LOX IMVI
# [17] = system: MDA-N
# [18] = system: NCI-H226
# [19] = system: PC-3
# [20] = system: SK-OV-3
SMILES,GI50 [1],GI50 [2],GI50 [3],GI50 [4],GI50 [5],GI50 [6],GI50 [7],GI50 [8],GI50 [9],GI50 [10],GI50 [11],GI50 [12],GI50 [13],GI50 [14],GI50 [15],GI50 [16],GI50 [17],GI50 [18],GI50 [19],GI50 [20]
COc1ccc(C[C@@H]2Cc3cc(OC)c(OC)cc3CN2C)cc1,59.7 µM (inactive),> 100 µM (inactive),> 100 µM (inactive),> 100 µM (inactive),> 100 µM (inactive),> 100 µM (inactive),> 100 µM (inactive),> 100 µM (inactive),> 100 µM (inactive),> 100 µM (inactive),> 100 µM (inactive),> 100 µM (inactive),,,,,,,,
COC(=O)C1(Cc2cccc(C)c2)Cc2c(C)cccc2C1=O (stereo not given),64.9 µM (inactive),61.8 µM (inactive),29.1 µM (inactive),59.6 µM (inactive),,36.8 µM (inactive),33.9 µM (inactive),37.5 µM (inactive),> 100 µM (inactive),> 100 µM (inactive),44.9 µM (inactive),38.7 µM (inactive),37.2 µM (inactive),> 100 µM (inactive),30.4 µM (inactive),50.1 µM (inactive),14.3 µM (inactive),44.9 µM (inactive),27.2 µM (inactive),58.6 µM (inactive)
COc1c(C(=O)c2ccc([N+](=O)[O-])cc2)cc(C(C)(C)C)cc1C(C)(C)C,41.6 µM (inactive),26.7 µM (inactive),47.4 µM (inactive),49.5 µM (inactive),35.6 µM (inactive),16.4 µM (inactive),26.5 µM (inactive),34.7 µM (inactive),13.4 µM (inactive),12.6 µM (inactive),39 µM (inactive),19.1 µM (inactive),,13.9 µM (inactive),,12.3 µM (inactive),,,,> 100 µM (inactive)
COCn1c2ccc(OC(C)=O)cc2c2c(=O)oc(N(C)C)nc21,> 100 µM (inactive),> 100 µM (inactive),> 100 µM (inactive),> 100 µM (inactive),,> 100 µM (inactive),> 100 µM (inactive),> 100 µM (inactive),> 100 µM (inactive),> 100 µM (inactive),> 100 µM (inactive),> 100 µM (inactive),> 100 µM (inactive),> 100 µM (inactive),> 100 µM (inactive),> 100 µM (inactive),> 100 µM (inactive),> 100 µM (inactive),> 100 µM (inactive),> 100 µM (inactive)
Cc1ccc(C2=CC(=O)c3ccccc3C2=O)n1-c1ccccc1,,23 µM (inactive),> 100 µM (inactive),> 100 µM (inactive),> 100 µM (inactive),26.1 µM (inactive),,> 100 µM (inactive),,36.7 µM (inactive),> 100 µM (inactive),46.7 µM (inactive),> 100 µM (inactive),32.8 µM (inactive),,> 100 µM (inactive),,7.67 µM (inactive),,> 100 µM (inactive)
O=C1c2cccnc2S(=O)(=O)N1c1ccc(Br)cc1,> 100 µM (inactive),43 µM (inactive),> 100 µM (inactive),> 100 µM (inactive),,> 100 µM (inactive),73.6 µM (inactive),> 100 µM (inactive),> 100 µM (inactive),91.6 µM (inactive),> 100 µM (inactive),> 100 µM (inactive),> 100 µM (inactive),< 0.01 µM (active),99.8 µM (inactive),> 100 µM (inactive),> 100 µM (inactive),> 100 µM (inactive),72.4 µM (inactive),> 100 µM (inactive)
CCOC(=O)C(C)c1nc2cc(F)c(F)cc2[nH]c1=O (stereo not given),> 100 µM (inactive),> 100 µM (inactive),> 100 µM (inactive),> 100 µM (inactive),,> 100 µM (inactive),> 100 µM (inactive),> 100 µM (inactive),> 100 µM (inactive),> 100 µM (inactive),> 100 µM (inactive),> 100 µM (inactive),> 100 µM (inactive),> 100 µM (inactive),> 100 µM (inactive),> 100 µM (inactive),> 100 µM (inactive),> 100 µM (inactive),> 100 µM (inactive),> 100 µM (inactive)
OCc1c[te]c(-c2ccccc2)c1,47.4 µM (inactive),17.5 µM (inactive),99.8 µM (inactive),32.2 µM (inactive),> 100 µM (inactive),38.8 µM (inactive),> 100 µM (inactive),22.1 µM (inactive),> 100 µM (inactive),24 µM (inactive),16 µM (inactive),34.6 µM (inactive),,12.6 µM (inactive),,,,24.9 µM (inactive),,> 100 µM (inactive)
O=C1O/C(=C\c2ccc(O)cc2)C(c2ccc(O)c(Cl)c2)=C1Cl,37.2 µM (inactive),35.7 µM (inactive),88.5 µM (inactive),35.4 µM (inactive),,49.7 µM (inactive),24.5 µM (inactive),33.7 µM (inactive),> 100 µM (inactive),> 100 µM (inactive),88.9 µM (inactive),60.5 µM (inactive),96.6 µM (inactive),33 µM (inactive),26.5 µM (inactive),50.6 µM (inactive),23.5 µM (inactive),58.1 µM (inactive),> 100 µM (inactive),> 100 µM (inactive)
CC(C)=C[C@@H]1C[C@H](C)c2c(O)cc(C)c3c2C1=C(C)C(=O)C3=O [ELISABATIN A],16.6 µM (inactive),22.4 µM (inactive),14.3 µM (inactive),17.4 µM (inactive),,28.6 µM (inactive),16 µM (inactive),13.5 µM (inactive),24.7 µM (inactive),18.2 µM (inactive),15 µM (inactive),13.8 µM (inactive),17.7 µM (inactive),21.9 µM (inactive),13.4 µM (inactive),16.3 µM (inactive),16.3 µM (inactive),16.3 µM (inactive),10.5 µM (inactive),16.7 µM (inactive)
NC(=O)CC(Nc1ncc2c(n1)-c1ccccc1OC2)C(=O)O (stereo not given),43.1 µM (inactive),> 100 µM (inactive),59.6 µM (inactive),> 100 µM (inactive),,> 100 µM (inactive),92 µM (inactive),> 100 µM (inactive),> 100 µM (inactive),26 µM (inactive),> 100 µM (inactive),> 100 µM (inactive),> 100 µM (inactive),14.9 µM (inactive),> 100 µM (inactive),> 100 µM (inactive),> 100 µM (inactive),71.1 µM (inactive),> 100 µM (inactive),> 100 µM (inactive)
CC[C@H](C)[C@H]1NC(=O)[C@@H](NC(=O)[C@@H](CC(C)C)N(C)C(=O)[C@@H]2CCCN2C(=O)C(C)=O)[C@@H](C)OC(=O)[C@H](Cc2ccc(OC)cc2)N(C)C(=O)[C@@H]2CCCN2C(=O)[C@H](CC(C)C)NC(=O)[C@H](C(C)C)OC(=O)C[C@@H]1O (Pyruvoyl-P[dNMeL]T[X40][Hiv]LP[NMeY](Me); ester 3-C),0.0581 µM (active),0.00224 µM (active),0.0031 µM (active),0.0046 µM (active),,0.00423 µM (active),0.00538 µM (active),0.00455 µM (active),0.00632 µM (active),0.00545 µM (active),0.0043 µM (active),0.00239 µM (active),0.00368 µM (active),0.05 µM (active),0.0302 µM (active),0.00428 µM (active),0.00467 µM (active),0.0159 µM (active),0.0046 µM (active),0.00528 µM (active)
Cc1nn2c(=O)c([N+](=O)[O-])c(/C=C/c3ccc(F)cc3)nc2s1,8.67 µM (inactive),4.47 µM (inactive),5.64 µM (inactive),15 µM (inactive),,10.1 µM (inactive),11.6 µM (inactive),15.2 µM (inactive),9.89 µM (inactive),3.51 µM (inactive),11.6 µM (inactive),4.84 µM (inactive),12.1 µM (inactive),3.95 µM (inactive),15.5 µM (inactive),2.79 µM (inactive),5.96 µM (inactive),11.4 µM (inactive),9.42 µM (inactive),12.6 µM (inactive)
CCCC(=O)OCC1OC(n2cc(F)c(=O)[nH]c2=O)C(F)C1OC(=O)CCC (stereo not given),23.1 µM (inactive),7.64 µM (inactive),50 µM (inactive),4.11 µM (inactive),,> 100 µM (inactive),36.6 µM (inactive),35.7 µM (inactive),96.6 µM (inactive),9.31 µM (inactive),19.2 µM (inactive),10.9 µM (inactive),36.4 µM (inactive),> 100 µM (inactive),17.4 µM (inactive),47.8 µM (inactive),> 100 µM (inactive),> 100 µM (inactive),> 100 µM (inactive),> 100 µM (inactive)
CCCCCCCCCCCCCCCCCCNC(=S)NC=C1C(=O)c2ccccc2C1=O,15.5 µM (inactive),5.02 µM (inactive),13 µM (inactive),9.86 µM (inactive),,4.03 µM (inactive),14.7 µM (inactive),15.6 µM (inactive),13.4 µM (inactive),14.2 µM (inactive),16 µM (inactive),4.73 µM (inactive),15.7 µM (inactive),3.87 µM (inactive),3 µM (inactive),3.9 µM (inactive),16 µM (inactive),8.32 µM (inactive),3.83 µM (inactive),16 µM (inactive)
